Data from paper PMC4746285, “Functional Analysis of the Citrate Activator CitO from Enterococcus faecalis Implicates a Divalent Metal in Ligand Binding” (Frontiers in Microbiology, 2016).
Read-outs that look alike come from different tables or passages of the source.

How the values were obtained:
[1] = target: T1, CitO-wt (Enterococcus faecalis, UniProt Q82YV4); assay type: biochemical; conditions: for Effect on CitO-PcitH−CL complex formation: EDTA-treated CitO-wt
[2] = target: CitO, regulator of citrate metabolism from Enterococcus faecalis (Enterococcus faecalis); assay: SEC; Superdex 75; 200 ul of 28.4 uM CitO, with or without 1 mM citrate (pH 8.0), 30 min on ice before injection; 50 mM Tris pH 7.6, 300 mM NaCl, 5% glycerol; 4°C; mass from a standard curve of protein standards
[3] = target: TM0439; design: method as in Zheng et al., 2009; conditions: ref Zheng et al., 2009; cited from earlier work
[4] = target: T1, CitO-wt; assay type: binding
Description: The assay was carried out as described earlier (Pagliai et al., [2010]). Briefly, CitO (10 μM), in presence or absence of increasing concentrations of citrate or malate (the latter was used as a negative control), was placed (in duplicate) into 96-well plates (Bio-Rad, Hercules, CA) and heated from 25 to 80°C at the rate of 1°C per min. The unfolding of the protein was monitored by the increase in fluorescence of the fluorophore SYPRO Orange (Invitrogen). Fluorescence intensities were plotted against temperature for each sample well and transition curves were fitted with the Boltzmann equation using Origin 8 software (Northampton, MA). The midpoint of each transition curve was calculated and values obtained in presence of the ligand compared to those calculated for CitO in absence of the ligand.

[5] = target: T2, CitO-H74A (Enterococcus faecalis, UniProt Q82YV4, H74A); assay type: binding; conditions: DSF
[6] = target: T3, CitO-L214A (Enterococcus faecalis, UniProt Q82YV4, L214A); assay type: biochemical
[7] = target: T4, CitO-F143A (Enterococcus faecalis, UniProt Q82YV4, F143A); assay type: biochemical; conditions: EMSA, 5 mM citrate
[8] = target: T5, CitO-Q64A (Enterococcus faecalis, UniProt Q82YV4, Q64A); assay: biochemical; assay type: binding
[9] = system: PcitCL promoter activity; assay: β-galactosidase assay, PcitCL fusion to lacZ in JHB14 strains expressing CitO variants; assay type: cell-based, E. faecalis; conditions: for β-galactosidase activity: LB with 17 mM citrate
[10] = target: CitO-R97A; assay type: binding; conditions: ITC, 25°C, ni = no interaction
[11] = target: T5, CitO-Q64A; assay type: binding; conditions: DSF
[12] = target: T1, CitO-wt; assay: Isothermal titration calorimetry of CitO-wt with citrate; assay type: binding
Description: Measurements were performed on a VP-Microcalorimeter (MicroCal, Northampton, MA) at 25°C. The proteins were thoroughly dialyzed against 10 mM Tris (pH 8.0), 500 mM NaCl, and 2.5% glycerol. A solution of citrate (1 mM, pH 8.0) was directly prepared in dialysis buffer. Each titration involved a series of 3 μl injections of the effector molecule into the protein solution. The mean enthalpies measured from injection of the ligand in the buffer were subtracted from raw titration data prior to data analysis with Origin 8 software (MicroCal). Titration curves were fitted by a nonlinear least squares method to a function for the binding of a ligand to a macromolecule (Wiseman et al., [1989]). From the curve thus fitted, the parameters ΔH (reaction enthalpy), KA (binding constant, KA = 1/KD), and N (reaction stoichiometry) were determined. From the values of KA and ΔH, the changes in free energy (ΔG) and entropy (ΔS) were calculated with the following equation: ΔG = −RT lnKA = ΔH−TΔS; where R is the universal molar gas constant and T is the absolute temperature.

[13] = target: T4, CitO-F143A; assay: biochemical; assay type: binding
[14] = system: CitO-H191A; assay type: binding; conditions: DSF, citrate up to 1 mM
[15] = target: T5, CitO-Q64A; assay type: biochemical; conditions: EMSA, 5 mM citrate
[16] = target: T3, CitO-L214A; assay: biochemical; assay type: binding
[17] = target: T2, CitO-H74A; assay: biochemical; assay type: binding
[18] = target: T3, CitO-L214A; assay type: binding; conditions: DSF, only at 50 μM citrate or higher
[19] = system: CitO; design: method as in Blancato et al., 2008; conditions: in vivo and in vitro experiments; ref Blancato et al., 2008; cited from earlier work
[20] = system: CitO-H191A; assay type: biochemical; conditions: EMSA, 5 mM citrate
[21] = target: T4, CitO-F143A; assay type: binding; conditions: DSF, 50 μM citrate, Tm = 50°C without citrate
[22] = system: CitO-R97A; assay type: binding; conditions: DSF, citrate up to 1 mM
[23] = target: T2, CitO-H74A; assay type: biochemical; conditions: EMSA, 5 mM citrate
[24] = system: CitO-R97A; assay type: biochemical; conditions: EMSA, 5 mM citrate
[25] = target: CitO-H191A; assay type: binding; conditions: ITC, 25°C, ni = no interaction
[26] = system: T6, CitO-L214A L214A (Enterococcus faecalis), ORF:7f2fe6d0; assay: EMSA
T6 sequence: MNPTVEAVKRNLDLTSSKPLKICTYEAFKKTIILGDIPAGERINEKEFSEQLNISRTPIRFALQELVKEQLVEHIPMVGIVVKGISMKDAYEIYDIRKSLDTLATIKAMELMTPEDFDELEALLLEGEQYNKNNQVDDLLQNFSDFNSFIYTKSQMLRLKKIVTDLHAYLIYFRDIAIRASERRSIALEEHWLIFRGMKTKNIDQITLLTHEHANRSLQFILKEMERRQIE

[27] = EMSA, 0.2 μM CitO-wt, Me2+ 2 mM, absence of citrate
[28] = EMSA, Me2+ 2 mM together with 5 mM citrate
[29] = DSF, CitO-wt, ligand added, without ligand Tm1 = 43°C, Tm2 = 58°C

In the case of `[Mn+2]` [Mn^2+], the “Effect on binding of CitO to PcitH−CL” value [1, 27] is reported as “did not modify the binding”.
“CitO, regulator of citrate metabolism from Enterococcus faecalis (natural protein)” gave a stoichiometry N [2] of 2.
For `[Ni+2]` [Ni^2+], the KD [3] is given as “nanomolar range”, the “Effect on binding of CitO to PcitH−CL” value [1, 27] is given as “decreased the binding” and the “Effect on CitO-PcitH−CL complex formation” value [1, 28] is given as “increased the stability of the larger CitO-PcitH−CL complexes”.
With `[Mg+2]` [Mg^2+] the “Effect on binding of CitO to PcitH−CL” value [1, 27] was “did not modify the binding”.
With `[Ca+2]` [Ca^2+] the “Effect on binding of CitO to PcitH−CL” value [1, 27] was “did not modify the binding”.
With succinate the “Shift in the Tm2” value [4] was “did not show a shift in the Tm2”.
With `O=C(O)CC(O)C(=O)O` (stereo not shown) [malate] the “Shift in the Tm2” value [4, 29] was “did not show a shift in the Tm2”.
With `O=C(O)CC(O)(CC(=O)O)C(=O)O` [citrate] the “Interaction with citrate in solution” value [5] was “still able to interact with citrate”, the “Effect on binding to PcitH−CL” value [6] was “increased the binding” and the “Shift of protein:DNA complex” value [7] was “strong shift”. For the same molecule, the Kd [8] was 0.77 ± 0.1 µM, the ΔG ([8]; ITC, CitO-Q64A) was -8.34 kcal/mol and the ΔH ([8]; ITC, CitO-Q64A) was 6.724 kcal/mol. For the same molecule, the “Increment in the β-galactosidase activity” value [9] was 64 fold, the β-galactosidase activity ([9]; CitO-H191A strain) was “very low β-galactosidase activity” and the β-galactosidase activity ([9]; CitO-R97A strain) was “very low β-galactosidase activity”. For the same molecule, the β-galactosidase activity ([9]; strain carrying CitO-H74A) was “reduced β-galactosidase activity”, the β-galactosidase activity ([9]; strain containing CitO-F143A) was “induced” and the β-galactosidase activity ([9]; strain containing CitO-Q64A) was “induced”. The β-galactosidase activity ([9]; strain containing CitO-wt) was “induced”, the KD [10] was “did not interact and ni^*” and the “Shift in Tm” value ([11]; 5 μM citrate) was “clear shift in Tm”. The Thermal stability ([11]; 50 μM citrate) was “higher stability”, the Kd [12] was 1.2 ± 0.2 µM and the ΔG ([12]; ITC, CitO-wt) was -7.9834 kcal/mol. The ΔH ([12]; ITC, CitO-wt) was 6.122 kcal/mol, the “ΔS (entropy change)” value ([12]; ITC, CitO-wt) was 47.3 cal/mol/deg and the “Stability of the CitO-DNA complexes” value ([1]; EMSA, CitO-wt, citrate up to 5 mM) was “increased”. The “Effect on CitO-PcitH−CL complex formation” value ([1]; EMSA, 5 mM citrate alone) was “improved the formation of intermediate complexes”, the Kd [13] was 0.44 ± 0.08 µM and the ΔG ([13]; ITC, CitO-F143A) was -8.6857 kcal/mol. For the same molecule, the ΔH ([13]; ITC, CitO-F143A) was 16.02 kcal/mol, the “Denaturation temperature in presence vs absence of citrate” value [14] was “denatured at similar temperature” and the “Ability to bind the DNA probe in presence of citrate” value [15] was “comparable to the wild type”. It also gave a Kd [16] of 1.2 ± 0.2 µM, a TΔS ([16]; ITC, CitO-L214A) of 46.5 cal/mol/deg and a ΔG ([16]; ITC, CitO-L214A) of -8.07 kcal/mol. The ΔH ([16]; ITC, CitO-L214A) was 5.78 kcal/mol, the Kd [17] was 0.82 ± 0.04 µM and the ΔG ([17]; ITC, CitO-H74A) was -8.4346 kcal/mol. For the same molecule, the ΔH ([17]; ITC, CitO-H74A) was 6.5 kcal/mol, the “ΔTm (increase in Tm2)” value [18] was 4 °C and the “Shift in the Tm2” value [4, 29] was “induced a shift in the Tm2”. For the same molecule, the “Activation of CitO” value [19] was “specifically activated only by citrate”, the “Effect on formation of protein:DNA complexes” value (“Effect on formation” below) [20] was “did not modify the formation of protein:DNA complexes” and the Tm [21] was 57 °C. For the same molecule, the “Denaturation temperature in presence vs absence of citrate” value [22] was “denatured at similar temperature”, the “Effect on formation” value [23] was “did not modify the formation of protein:DNA complexes” and the “Effect on formation” value [24] was “did not modify the formation of protein:DNA complexes”. For the same molecule, the KD [25] was “did not interact and ni^*”.
For `O=C(O)CN(CCN(CC(=O)O)CC(=O)O)CC(=O)O` [EDTA], the “Effect on binding of CitO to PcitH−CL” value [1] was “decreased the binding”.
For “GGTATACGTTCATTATAGAAAAAACCGTTAAAAAACCTAGTGAAAACACTAGCTCAGATTGTTCTTTTATTGTTTATTTTGTGAAAAAAACTCTGTAAACATTGGTATATAAGCATTTATCAGCCGTTAAGATTCTATTAATATTATATTAAGTTATTAATAAGAATTTGATTGTTGAATTGTTTTTTTGATGTTCTTTTTGTTTTAGGCTATTTATTCTCTGCGAAAGTTTGTATATTCTCACAC (double strand) [PcitH-CL]”, the binding [26] was “binds”.
In the case of `O=C(O)CC(C(=O)O)C(O)C(=O)O` (stereo not shown) [isocitrate], the “Shift in the Tm2” value [4, 29] is reported as “did not show a shift in the Tm2”.
For `[Zn+2]` [Zn^2+], the KD [3] is listed as “nanomolar range”, the “Effect on binding of CitO to PcitH−CL” value [1, 27] is listed as “decreased the binding” and the “Effect on CitO-PcitH−CL complex formation” value [1, 28] is listed as “increased the stability of the larger CitO-PcitH−CL complexes”.
